Assay results taken from patent publication US7122173B2, “Agent for the treatment of bladder irritative symptoms accompanied by benign prostatic hyperplasia” (Kyowa Hakko Kogyo Co., Ltd., priority 2001, dated 2006).

Tested on: rats with partial urethra obstruction
Test: Bladder capacity in rats with partial outlet obstruction (cystometry)
Format: in vivo, rat
Conditions: oral
Experimental: The test was carried out in accordance with the method of Saito et al. (J. Urol., 150: 1145–1151 (1993)). Male SD rats of 8 to 9 weeks of age (supplied by Japan SLC) were used in the test. Five to seven animals of these rats were put in each metal cage and reared by allowing them to freely take commercially available chow and water, in a rearing room at a room temperature of from 19 to 25° C. and a humidity of from 30 to 70% under illumination for 12 hours (from 7 a.m. to 7 p.m.) per day. Partial urethra obstruction was induced in rats, as a model of urethral obstruction mimicking BPH. Each rat was anesthetized by intraperitoneal administration of 50 mg/kg of pentobarbital sodium (Dainippon Pharmaceutical) and placed in dorsal position. The abdomen was cut in a length of about 1 cm by median incision to expose the bladder, prostate and the urethra. The bladder neck and bladder base were peeled from the prostate, and two surgical sutures (No. 3, Natsume Seisakusho) were passed behind the urethra base. A polyethylene tube (PE-200; Becton Dickinson) was placed along the urethra, and the urethra was mildly double-ligated together with the tube. The ligation was carried out in such a manner that the urethra was not pressed by the polyethylene tube and the sutures were not loosened. The polyethylene tube was pulled out and the urethra was constricted. On the same day of the above surgery, bladder catheter indwelling operation was carried out. The bladder was exposed, and a polyethylene tube (PE-50; Becton Dickinson) was inserted from the bladder top and fixed with a surgical suture. The other end was exposed subcutaneously from the back neck, plugged and then fixed to the skin with the surgical suture. The bladder was returned to the original position and the abdomen was sutured with the surgical suture. Five to seven days after the urethra obstruction and catheter indwelling operations, the rats with partial urethra obstruction and those subjected to sham-operation were put in Ballman cages (KN-326-1, Natsume Seisakusho) under the restricted state, and a three-way cock was connected to the bladder catheter. A pressure transducer (DX-360; Nihon Kohden) was connected to one end of the three-way cock, and the intravesical pressure signal was amplified via a strain pressure amplifier (AP-601G; Nihon Kohden), measured by a polygraph (RPM-6008; Nihon Kohden) and recorded on a thermal array recorder (RTA-1200; Nihon Kohden). A syringe filled with physiological saline (Otsuka Pharmaceutical Industries, Tokushima, Japan) was connected to the other end of the three-way cock and fixed to an infusion pump (KDS 220; Neuroscience). An FD pickup (TB-611T; Nihon Kohden) equipped with a cup was placed on the downside of the Ballman cage and connected to the strain gauge pressure amplifier, and the micturition volume was recorded on the thermal array recorder as the tension change. After the completion of the preparation, physiological saline kept at room temperature was continuously injected into the bladder at a flow rate of 6 mL/h for about 30 minutes, and the animals periodically expressing micturition contraction were used in the test. After they are allowed to stand for 30 to 60 minutes, residual urine was manually expressed by finger pressure. Five minutes thereafter, the injection of physiological saline into the bladder was started again, and the injection was immediately stopped when micturition was observed. The bladder capacity was calculated from the period of time until expression of micturition (injection rate 6 mL/h×injection period). The residual urine volume was calculated by subtracting the micturition volume at the time of bladder contraction (voided volume per micturition) from the bladder capacity. By repeating 30 minutes of bladder injection of physiological saline 2 to 3 times, respective values were measured and used as the test compound or solvent pre-administration values. […]

[1] = before administration (baseline of the Compound 1 group)
[2] = rats with partial urethra obstruction

C[C@](O)(C(=O)Nc1cccc2c1C(=O)c1sccc1CS2(=O)=O)C(F)(F)F [Compound 1, (S)-(+)-N-(5,5-dioxido-10-oxo-4,10-dihydrothieno[3,2-c][1]benzothiepin-9-yl)-3,3,3-trifluoro-2-hydroxy-2-methylpropanamide]
Bladder capacity (1 h after administration): 0.54 ± 0.08 mL | Residual urine volume (1 h after administration): 0.18 ± 0.07 mL | micturition volume (1 h after administration): 0.36 ± 0.07 mL | Bladder capacity (2 h after administration): 0.46 ± 0.07 mL | Residual urine volume (2 h after administration): 0.10 ± 0.05 mL | micturition volume (2 h after administration): 0.36 ± 0.07 mL | Bladder capacity (3 h after administration): 0.44 ± 0.07 mL | Residual urine volume (3 h after administration): 0.18 ± 0.07 mL | micturition volume (3 h after administration): 0.27 ± 0.01 mL | Bladder capacity [1]: 0.40 ± 0.04 mL | Residual urine volume [1]: 0.15 ± 0.02 mL | micturition volume [1]: 0.25 ± 0.04 mL | Effect on bladder capacity (in words) [2]: tended to increase bladder capacity | Effect on micturition volume (in words) [2]: significantly increased micturition volume
